Test results reported in patent US10479780B2, “Aminopyrazole derivatives” (Chugai Seiyaku Kabushiki Kaisha, priority 2015, dated 2019).

How the values were obtained:
Format in all cases: biochemical
human Src enzyme = target: T1, human Src enzyme (Homo sapiens, UniProt P12931); assay: Src enzyme inhibitory activity (time-resolved fluorometry, biotinylated peptide phosphorylation); settings: biotinylated peptide phosphorylation, read-out: SRC_IC50
T1 construct: purchased Carna Biosciences, Inc. 08-173
T1 sequence (P12931 whole entry): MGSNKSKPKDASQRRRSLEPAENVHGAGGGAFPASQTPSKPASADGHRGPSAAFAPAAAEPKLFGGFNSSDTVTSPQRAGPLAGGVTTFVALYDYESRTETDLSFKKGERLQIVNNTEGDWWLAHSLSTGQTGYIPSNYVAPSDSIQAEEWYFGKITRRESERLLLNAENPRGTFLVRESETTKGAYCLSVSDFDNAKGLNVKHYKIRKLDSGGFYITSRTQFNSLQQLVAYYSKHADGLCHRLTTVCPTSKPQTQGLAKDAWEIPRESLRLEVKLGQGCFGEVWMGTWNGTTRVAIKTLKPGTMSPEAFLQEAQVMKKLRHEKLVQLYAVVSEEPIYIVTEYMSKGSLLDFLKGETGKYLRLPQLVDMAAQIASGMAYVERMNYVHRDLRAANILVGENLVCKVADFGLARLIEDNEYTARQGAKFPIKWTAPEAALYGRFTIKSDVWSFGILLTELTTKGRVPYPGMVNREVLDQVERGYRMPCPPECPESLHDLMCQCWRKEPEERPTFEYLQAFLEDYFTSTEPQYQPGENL
In short: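 Compounds were tested for blocking tyrosine phosphorylation of a biotinylated peptide substrate by recombinant human Src. Phosphorylated product was quantified by time-resolved fluorometry using europium cryptate and XL665 conjugates, and IC50 was calculated against the compound-free control.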

human Lck enzyme = target: T2, human Lck enzyme (Homo sapiens, UniProt P06239); assay: Lck enzyme inhibitory activity (time-resolved fluorometry, biotinylated peptide phosphorylation); settings: biotinylated peptide phosphorylation, read-out: LCK_IC50
T2 construct: purchased Carna Biosciences, Inc. 08-170
T2 sequence (P06239 whole entry): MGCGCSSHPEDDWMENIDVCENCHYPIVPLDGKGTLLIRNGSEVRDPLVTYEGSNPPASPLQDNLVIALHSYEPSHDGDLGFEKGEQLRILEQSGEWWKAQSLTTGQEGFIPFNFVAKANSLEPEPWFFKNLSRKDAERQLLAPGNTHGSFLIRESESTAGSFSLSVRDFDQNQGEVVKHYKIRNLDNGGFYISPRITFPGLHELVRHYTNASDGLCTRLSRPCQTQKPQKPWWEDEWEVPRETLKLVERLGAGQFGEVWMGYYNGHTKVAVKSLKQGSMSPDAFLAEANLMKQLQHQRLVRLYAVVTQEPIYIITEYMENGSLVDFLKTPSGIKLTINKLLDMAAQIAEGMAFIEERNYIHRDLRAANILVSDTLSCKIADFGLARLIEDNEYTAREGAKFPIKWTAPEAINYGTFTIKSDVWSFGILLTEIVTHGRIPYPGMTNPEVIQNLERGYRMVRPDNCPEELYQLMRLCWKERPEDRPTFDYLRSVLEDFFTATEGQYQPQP
In short: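 Readout pairs a europium cryptate-labelled anti-phosphotyrosine antibody with XL665-streptavidin, measured by time-resolved fluorescence. IC50 derived from percent inhibition against untreated controls.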

human Yes1 enzyme = target: T3, human Yes1 enzyme (Homo sapiens, UniProt P07947); assay: Yes1 enzyme inhibitory activity (time-resolved fluorometry, biotinylated peptide phosphorylation); settings: biotinylated peptide phosphorylation, read-out: YES_IC50
T3 construct: made in house
T3 sequence (P07947 whole entry): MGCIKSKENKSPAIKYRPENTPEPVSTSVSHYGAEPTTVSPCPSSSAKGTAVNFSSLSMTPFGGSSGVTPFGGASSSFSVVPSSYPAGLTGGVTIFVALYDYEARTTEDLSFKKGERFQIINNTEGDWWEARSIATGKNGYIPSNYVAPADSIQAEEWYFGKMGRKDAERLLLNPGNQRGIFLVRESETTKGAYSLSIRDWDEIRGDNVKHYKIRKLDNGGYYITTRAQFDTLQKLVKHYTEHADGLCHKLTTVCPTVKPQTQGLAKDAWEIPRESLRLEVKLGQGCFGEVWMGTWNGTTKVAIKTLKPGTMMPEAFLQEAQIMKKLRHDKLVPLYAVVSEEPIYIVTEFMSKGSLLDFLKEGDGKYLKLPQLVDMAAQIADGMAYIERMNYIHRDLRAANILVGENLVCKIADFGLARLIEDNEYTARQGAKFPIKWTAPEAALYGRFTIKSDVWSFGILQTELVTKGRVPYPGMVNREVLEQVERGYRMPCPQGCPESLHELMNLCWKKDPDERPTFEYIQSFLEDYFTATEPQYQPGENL
In short: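 Inhibition was expressed against a compound-free control to give IC50, using TR-FRET read-out (Eu-cryptate anti-pTyr antibody, streptavidin-XL665).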

Compound | IC50 (human Src enzyme) [nM] | IC50 (human Lck enzyme) [nM] | IC50 (human Yes1 enzyme) [nM]
Cc1cc2cc(C(=O)c3cnn(-c4cnc(Oc5ccccc5F)cc4C)c3N)[nH]c2cc1NS(=O)(=O)c1cccc2ccccc12 [Example 5-1-465, N-[2-[5-amino-1-[6-(2-fluorophenoxy)-4-methylpyridin-3-yl]pyrazole-4-carbonyl]-5-methyl-1H-indol-6-yl]naphthalene-1-sulfonamide] | 4000 | 510 | 25
Cc1cc2cc(C(=O)c3cnn(-c4cnc(Oc5ccccc5F)cc4C)c3N)[nH]c2cc1NS(=O)(=O)c1ccc2ccccc2c1 [Example 5-1-466, N-[2-[5-amino-1-[6-(2-fluorophenoxy)-4-methylpyridin-3-yl]pyrazole-4-carbonyl]-5-methyl-1H-indol-6-yl]naphthalene-2-sulfonamide] | 4400 | 520 | 28
Cc1cc2cc(C(=O)c3cnn(-c4cnc(Oc5ccccc5F)cc4C)c3N)[nH]c2cc1NS(=O)(=O)c1csc2ccccc12 [Example 5-1-467, N-[2-[5-amino-1-[6-(2-fluorophenoxy)-4-methylpyridin-3-yl]pyrazole-4-carbonyl]-5-methyl-1H-indol-6-yl]-1-benzothiophene-3-sulfonamide] | 3800 | 370 | 24
Cc1cc2cc(C(=O)c3cnn(-c4cnc(Oc5ccccc5F)cc4C)c3N)[nH]c2cc1NS(=O)(=O)c1ccccn1 [Example 5-1-477, N-[2-[5-amino-1-[6-(2-fluorophenoxy)-4-methylpyridin-3-yl]pyrazole-4-carbonyl]-5-methyl-1H-indol-6-yl]pyridine-2-sulfonamide] | 250 | 48 | 5.2
Cc1cc2cc(C(=O)c3cnn(-c4cnc(Oc5ccccc5F)cc4C)c3N)[nH]c2cc1NS(=O)(=O)c1cc(C#N)ccn1 [Example 5-1-478, N-[2-[5-amino-1-[6-(2-fluorophenoxy)-4-methylpyridin-3-yl]pyrazole-4-carbonyl]-5-methyl-1H-indol-6-yl]-4-cyanopyridine-2-sulfonainide] | 280 | 77 | 4.8
Cc1cc2cc(C(=O)c3cnn(-c4cnc(Oc5ccccc5F)cc4C)c3N)[nH]c2cc1NS(=O)(=O)c1cccc(C#N)n1 [Example 5-1-479, N-[2-[5-amino-1-[6-(2-fluorophenoxy)-4-methylpyridin-3-yl]pyrazole-4-carbonyl]-5-methyl-1H-indol-6-yl]-6-cyanopyridine-2-sulfonamide] | 770 | 170 | 3.3
Cc1cc2cc(C(=O)c3cnn(-c4cnc(Oc5ccccc5F)cc4C)c3N)[nH]c2cc1NS(=O)(=O)c1cncc(C#N)c1 [Example 5-1-480, N-[2-[5-amino-1-[6-(2-fluorophenoxy)-4-methylpyridin-3-yl]pyrazole-4-carbonyl]-5-methyl-1H-indol-6-yl]-5-cyanopyridine-3-sulfonamide] | 400 | 100 | 6.4
Cc1cc(C#N)cc(S(=O)(=O)Nc2cc3[nH]c(C(=O)c4cnn(-c5cnc(Oc6ccccc6F)cc5C)c4N)cc3cc2C)n1 [Example 5-1-481, N-[2-[5-amino-1-[6-(2-fluorophenoxy)-4-methylpyridin-3-yl]pyrazole-4-carbonyl]-5-methyl-1H-indol-6-yl]-4-cyano-6-methylpyridine-2-sulfonamide] | 450 | 110 | 5.4
COc1ccnc(S(=O)(=O)Nc2cc3[nH]c(C(=O)c4cnn(-c5cnc(Oc6ccccc6F)cc5C)c4N)cc3cc2C)c1 [Example 5-1-482, N-[2-[5-amino-1-[6-(2-fluorophenoxy)-4-methylpyridin-3-yl]pyrazole-4-carbonyl]-5-methyl-1H-indol-6-yl]-4-methoxypyridine-2-sulfonamide] | 480 | 140 | 6.3
COc1cccc(S(=O)(=O)Nc2cc3[nH]c(C(=O)c4cnn(-c5cnc(Oc6ccccc6F)cc5C)c4N)cc3cc2C)n1 [Example 5-1-483, N-[2-[5-amino-1-[6-(2-fluorophenoxy)-4-methylpyridin-3-yl]pyrazole-4-carbonyl]-5-methyl-1H-indol-6-yl]-6-methoxypyridine-2-sulfonamide] | 710 | 250 | 6.7
COc1cncc(S(=O)(=O)Nc2cc3[nH]c(C(=O)c4cnn(-c5cnc(Oc6ccccc6F)cc5C)c4N)cc3cc2C)c1 [Example 5-1-484, N-[2-[5-amino-1-[6-(2-fluorophenoxy)-4-methylpyridin-3-yl]pyrazole-4-carbonyl]-5-methyl-1H-indol-6-yl]-5-methoxypyridine-3-sulfonamide] | 570 | 140 | 6.9

Results, then the compound that gave them:

IC50 (human Src enzyme) [nM] | IC50 (human Lck enzyme) [nM] | IC50 (human Yes1 enzyme) [nM] | Compound
1200 | 310 | 9.3 | Cc1cc2cc(C(=O)c3cnn(-c4cnc(Oc5ccccc5F)cc4C)c3N)[nH]c2cc1NS(=O)(=O)c1cccc(Cl)c1 [Example 5-1-464, N-[2-[5-amino-1-[6-(2-fluorophenoxy)-4-methylpyridin-3-yl]pyrazole-4-carbonyl]-5-methyl-1H-indol-6-yl]-3-chlorobenzenesulfonamide]
7800 | 430 | 11 | Cc1cc(-n2ncc(C(=O)c3cc4cc(C)c(N5C(=O)NC6(CCC6)C5=O)cc4[nH]3)c2N)ccc1Oc1ccccc1F [Example 5-1-468, 7-[2-[5-amino-1-[4-(2-fluorophenoxy)-3-methylphenyl]pyrazole-4-carbonyl]-5-methyl-1H-indol-6-yl]-5,7-diazaspiro[3.4]octane-6,8-dione]
2700 | 100 | 9 | Cc1cc(-n2ncc(C(=O)c3cc4cc(C)c(N5C(=O)NC6(CCOCC6)C5=O)cc4[nH]3)c2N)ccc1Oc1ccccc1F [Example 5-1-469, 3-[2-[5-amino-1-[4-(2-fluorophenoxy)-3-methylphenyl]pyrazole-4-carbonyl]-5-methyl-1H-indol-6-yl]-8-oxa-1,3-diazaspiro[4.5] decane-2,4-dione]
3500 | 240 | 17 | Cc1cc(-n2ncc(C(=O)c3cc4cc(C)c(N5C(=O)NC6(CC6)C5=O)cc4[nH]3)c2N)ccc1Oc1ccccc1F [Example 5-1-473, 6-[2-[5-amino-1-[4-(2-fluorophenoxy)-3-methylphenyl]pyrazole-4-carbonyl]-5-methyl-1H-indol-6-yl]-4,6-diazaspiro[2.4]heptane-5,7-dione]
1400 | 71 | 8.2 | Cc1cc(-n2ncc(C(=O)c3cc4cc(C)c(N5C(=O)NC6(COC6)C5=O)cc4[nH]3)c2N)ccc1Oc1ccccc1F [Example 5-1-475, 7-[2-[5-amino-1-[4-(2-fluorophenoxy)-3-methylphenyl]pyrazole-4-carbonyl]-5-methyl-1H-indol-6-yl]-2-oxa-5,7-diazaspiro[3.4] octane-6,8-dione]
97 | 12 | 2.9 | Cc1cc2cc(C(=O)c3cnn(-c4ccc(Oc5ccccc5F)cc4C)c3N)[nH]c2cc1N1C(=O)N[C@@H](C(C)C)C1=O [Example 5-1-476, (5S)-3-[2-[5-amino-1-[4-(2-fluorophenoxy)-2-methylphenyl]pyrazole-4-carbonyl]-5-methyl-1H-indol-6-yl]-5-propan-2-ylimidazolidine-2,4-dione]
